The test system of this test is HCV replicon cells. In words: Cell-based HCV replicon assay. The conditions noted are these: Hepatitis C virus, 72 h; replicon RNA level by real time PCR (Taqman), cells harvested on day 3; EC50 = concentration to achieve ΔCT=1 over baseline. As to the method: To measure cell-based anti-HCV activity of selected compounds of the present invention, replicon cells were seeded at 5000 cells/well in 96-well collagen I-coated Nunc plates in the presence of the test compound. Various concentrations of test compound, typically in 10 serial 2-fold dilutions, were added to the assay mixture, with the starting concentration ranging from 250 μM to 1 μM. The final concentration of DMSO was 0.5%, fetal bovine serum was 5%, in the assay media. Cells were harvested on day 3 by the addition of 1× cell lysis buffer (Ambion cat #8721). The replicon RNA level was measured using real time PCR (Taqman assay). The amplicon was located in 5B. The PCR primers were: 5B.2F, ATGGACAGGCGCCCTGA; 5B.2R, […]; the probe sequence was FAM-labeled CACGCCATGCGCTGCGG. GAPDH RNA was used as endogenous control and was amplified in the same reaction as NS5B (multiplex PCR) using primers and VIC-labeled probe recommended by the manufacturer (PE Applied Biosystem). […] Alternatively, to quantitate the absolute amount of replicon RNA, a standard curve was established by including serially diluted T7 transcripts of replicon RNA in the Taqman assay. […]

The structures appear in SMILES notation. pEC50: −log10 of the molar value.

`COC(=O)N[C@@H](C(=O)N1CCC[C@H]1c1nc2ccc3cc(-c4ccc5c(ccc6nc([C@@H]7CCCN7C(=O)[C@H](NC(=O)OC)C(C)C)[nH]c65)n4)ccc3c2[nH]1)C(C)C` [Compound 1]: the pEC50 is more than 9.00.

These data come from patent US20120276047A1, “FUSED TRICYCLIC COMPOUNDS AND DERIVATIVES THEREOF USEFUL FOR THE TREATMENT OF VIRAL DISEASES” (priority 2009, published 2012).
